# Legend:
# Serratia marcescens [1] = settings: urinary tract and oral infections; cited from earlier work
# Klebsiella pneumoniae [2] = settings: urinary tract and oral infections; cited from earlier work
# Y. pestis A1122 = assay: microbe, parasite or virus in culture; format: cell-based; settings: Yersinia pestis, A1122, read-out: MIC (μg/ml) Y. pestis
# E. coli No9 = settings: cited from earlier work
# S. aureus BAA1762 = assay: MIC against S. aureus BAA1762 (MRSA); format: cell-based; settings: Staphylococcus aureus, read-out: MIC (μg/ml) Staph. aureus BAA1762 MRSA
# Salmonella paratyphi = settings: cited from earlier work
# Salmonella typhi = settings: cited from earlier work
# E. coli 11 = settings: cited from earlier work
# Shigella sonnei T1 = settings: cited from earlier work
# Staphylococcus aureus = settings: cited from earlier work
# E. coli NIHJ = settings: cited from earlier work
# Salmonella enterides T-1 = settings: cited from earlier work
# Klebsiella pneumoniae [3] = settings: cited from earlier work
# B. pseudomallei Bp82z66 = assay: microbe, parasite or virus in culture; format: cell-based; settings: Burkholderia pseudomallei, BP82Z66, read-out: MIC (μg/ml) B. pseudomallei
# F. tularensis LVS = assay: microbe, parasite or virus in culture; format: cell-based; settings: Francisella tularensis, read-out: MIC (μg/ml) F. tu
# Shigella flexneri 2b T1 = settings: cited from earlier work
# [4] = in vivo; cited from earlier work
# M. tuberculosis = settings: cited from earlier work
# Serratia marcescens [5] = settings: cited from earlier work
# [6] = in vivo; cited from earlier work; remark: listed apart in the source
# Pasteurella multocida = settings: cited from earlier work
# bacteria of Table 4 = settings: broad range of bacteria (Table 4); cited from earlier work
# S. aureus RN4220 = assay: MIC against S. aureus RN4220 (MSSA); format: cell-based; settings: Staphylococcus aureus, read-out: MIC (μg/ml) Staph. aureus RN4220 MSSA
# M. tuberculosis H37Rv = assay: MIC against M. tuberculosis; format: cell-based; settings: Mycobacterium tuberculosis, H37RV, read-out: MIC (μg/ml) M. tb (MIC99)
# mammalian FAS-I enzymes = settings: selectivity versus FAS-II KAS enzymes; cited from earlier work
# [7] = rats, orally and by intramuscular injection; cited from earlier work
# M. smegmatis MC^2155 = assay: MIC against M. smegmatis; format: cell-based; settings: Mycolicibacterium smegmatis, MC^2155, read-out: MIC (μg/ml) M. smeg
smiles,measurement,setting,value
"C=C/C(C)=C/[C@@]1(C)SC(=O)C(C)=C1O [TLM, 5R-(+)-Thiolactomycin]",protection from infection,Serratia marcescens [1],provides protection
same,protection from infection,Klebsiella pneumoniae [2],provides protection
same,MIC,Y. pestis A1122,8.09 µg/mL
same,MIC,E. coli No9,100 µg/mL
same,MIC,S. aureus BAA1762,75 µg/mL
same,MIC,Salmonella paratyphi,50 µg/mL
same,MIC,Salmonella typhi,12.5 µg/mL
same,MIC,E. coli 11,25 µg/mL
same,MIC,Shigella sonnei T1,100 µg/mL
same,MIC,Staphylococcus aureus,25 µg/mL
same,MIC,E. coli NIHJ,200 µg/mL
same,MIC,Salmonella enterides T-1,12.5 µg/mL
same,MIC,Klebsiella pneumoniae [3],100 µg/mL
same,MIC,B. pseudomallei Bp82z66,13.1 µg/mL
same,MIC,F. tularensis LVS,2.81 µg/mL
same,MIC,Shigella flexneri 2b T1,6.3 µg/mL
same,bioavailability,[4],high bioavailability
same,MIC,M. tuberculosis,25 µg/mL
same,MIC,Serratia marcescens [5],100 µg/mL
same,toxicity,[6],low toxicity
same,MIC,Pasteurella multocida,0.2 µg/mL
same,"MIC values, range over organisms",bacteria of Table 4,6 to 200 µg/mL
same,MIC,S. aureus RN4220,75 µg/mL
same,MIC99,M. tuberculosis H37Rv,3.13 µg/mL
same,inhibition of mammalian FAS-I enzymes,mammalian FAS-I enzymes,does not inhibit
same,absorption,[7],rapidly absorbed
same,MIC,M. smegmatis MC^2155,25 µg/mL

# From patent US9056851B2, “Thiolactone antibiotics” (priority 2011, dated 2015)
